# In publication PMC4890880 (ACS infectious diseases, 2016):
# Read-outs that look alike come from different tables or passages of the source.
# Assays:
# HepG2-A16-CD81EGFP cells [1] = test: cells; settings: Homo sapiens, HepG2, read-out: % inhibition
# [2] = system: Plasmodium berghei (Pb-Luc) exoerythrocytic-stage parasites; test: microbe, parasite or virus in culture
# HepG2-A16-CD81EGFP cells [3] = settings: human, 50 uM
# [4] = read-out: Inhibition% @ 50 uM rep1
# [5] = read-out: Inhibition% @ 50 uM rep2
SMILES,inhibition at 50 µM (HepG2-A16-CD81EGFP cells [1]) [%],"inhibition at 50 µM [2, 4] [%]","inhibition at 50 µM [2, 5] [%]",HepG2 Tox% @ 50 uM rep1 (HepG2-A16-CD81EGFP cells [3]) [%],HepG2 Tox% @ 50 uM rep2 (HepG2-A16-CD81EGFP cells [3]) [%]
Oc1ccc(C(=C(Cl)Cl)c2ccc(O)cc2)cc1 [MMV665949],87.2,98,99,,
OC(CNCC1CCCO1)Cn1c2ccc(Cl)cc2c2cc(Cl)ccc21 (centres unmarked) [MMV396736],,101,101,98,99
COc1cc(C(=O)Nc2ccc(-c3nc4ccccc4[nH]3)cc2)cc(OC)c1OC [MMV665898],69.9,99,101,,
O=C(CCl)NCCOc1ccc(Cl)cc1Cl [MMV665927],91.7,100,99,,
Nc1nc(Nc2cccc(F)c2)nc2ccccc12 [MMV080034],81.8,102,103,,
COc1ccc(CN2CCCC(C(=O)c3ccc(C(F)(F)F)cc3)C2)c(O)c1 (centres unmarked) [MMV666060],94.3,104,104,,
CN(C)CCNc1cc(-c2ccccc2)nc2ccccc12 [MMV006704],,95,97,96,
CN1C=C(c2ccc3ccccc3n2)C(c2c[nH]c3ccccc23)c2ccccc21 (centres unmarked) [MMV008160],91.2,103,104,,
N=c1n(CCN2CCCCC2)c2ccccc2n1CC(=O)c1ccc(Cl)c(Cl)c1 [MMV396723],96.7,101,102,,
OC1CCCCC1C1(NC(=S)Nc2ccccc2)CCCCC1 (centres unmarked) [MMV665980],82.2,104,104,,
COc1ccc(-c2cn3c(C(=O)Nc4ccccc4Cl)c(-c4ccccc4)c4c3n2CCCC4)cc1 [MMV020403],52.5,102,103,,
O=C1c2ccccc2C2=Nc3ccccc3SC(c3cccc(F)c3)C12 (centres unmarked) [MMV006389],96.2,102,103,,
CCOc1ccccc1NC(=O)CN1CCN(C(=O)c2ccco2)CC1 [MMV007791],-15,16,43,,
CCN(CC)CCCNc1ccnc2cc3ccccc3cc12 [MMV665783],31.7,90,95,,
OCCNc1nc(Nc2ccc(Cl)c(Cl)c2)nc2ccccc12 [MMV001041],,99,101,98,
COc1ccc(CNC2CCN(c3ccc(NC(=O)c4cccc(Cl)c4)cc3)CC2)cc1OC [MMV666067],,102,99,98,99
OC(CNCc1ccccc1)Cn1c2ccccc2c2ccccc21 (centres unmarked) [MMV000839],,101,100,99,
CCOC(=O)c1cnc2ccc(Cl)cc2c1NCCCN(C)C [MMV006882],,99,102,99,
COc1ccc(CCN2CCC(CN(C)Cc3cnn(-c4ccccc4)c3)CC2)cc1 [MMV666069],,101,103,99,100
N=c1n(CCN2CCCCC2)c2ccccc2n1CC(O)c1cccc(Br)c1 (centres unmarked) [MMV665902],,104,105,101,102
CCn1c(CN2CCN(Cc3ccccc3)CC2)nc2cc(NC(=O)c3cccs3)ccc21 [MMV020439],,99,102,98,99
CCOC(=O)c1cnc2ccc(OC)cc2c1NCc1ccccc1 [MMV665813],,103,104,102,
